The results in this text go back to PubChem BioAssay AID2060354 (Molecular Pharmacology Branch, DTP, NCI, 2025).

The experiment concerns 519858-162-T-J1-PDC spheroid growth inhibition. In words: Anticancer human tumor 519858-162-T-J1-PDC patient-derived colon adenocarcinoma cell line growth inhibition [TAK]. The note with it: spheroids with HUVEC and MSC; for viability, T/C: stronger effect = lower value. The source says:
Combinatorial screen of targeted agents with TAK-243 and ipatasertib in multi-cell type tumor spheroids
A high-throughput screen of multi-cell type tumor spheroids was designed to identify active combinations of targeted small molecules and TAK-243 or ipatasertib. Complex spheroids include a stromal component modeled by human endothelial cells (HUVEC) and fibroblasts modeled by human mesenchymal stem cells (MSCs). The concentration ranges selected for each drug and investigational agent were based upon clinically achievable concentrations if the clinical Cmax of the agent was known.
Compounds. The drugs and investigational agents: TAK-243 (785004), ipatasertib (767898), everolimus (733504), selumetinib (741078), bortezomib (756655), trametinib (758246), ixazomib (758254), vemurafenib (761431), dabrafenib (764134), sapanisertib (764658), alpelisib (765974), and copanlisib (816437), were obtained from the National Cancer Institute (NCI) Developmental Therapeutics Program Chemical Repository. The FDA-approved anticancer drug set is available from the NCI Developmental Therapeutics Program. […] The stock solutions were prepared in dimethyl sulfoxide (DMSO, Sigma-Aldrich, St. Louis, MO, cat. D2650) at 800-fold the tested concentration and stored at -70 degrees C prior to their use. All drugs and investigational agents were tested over a range starting from a high concentration at or near the clinical Cmax and decreasing in half-log increments. If the clinical Cmax for an agent had not been determined, the highest concentration tested was 10 microM.
NCI60 Cell Culture. NCI60 cell lines were obtained from the NCI Developmental Therapeutics Program Tumor Repository. For each lot of cells, the Repository performed Applied Biosystems AmpFLSTR Identifiler testing with PCR amplification to confirm consistency with the published Identifier STR profile for each cell line. Cells were kept in continuous culture for no more than 20 passages. The optimal seeding densities for each of the cell lines at each time point assessed were determined prior to performing the concentration response studies. Briefly, the NCI60 human tumor lines were grown as monolayers in RPMI 1640 medium supplemented with 10% FBS and 2 mmol/L L-glutamine.
An additional 2 lines were from the NCI60 cell line panel including melanomas, MALME-3M and SK-MEL-2. Pooled donor human umbilical vein endothelial cells (HUVEC, Lonza, cat. CC-2519) and human mesenchymal stem cells (hMSC, Lonza, cat. PT-2501) were purchased from Lonza (Walkersville, MD).
PDMR cell lines were grown in complete medium (DC medium): Dulbecco's modified Eagle's medium (DMEM)/F12 supplemented with 5% fetal bovine serum (FBS), 2 mM L-glutamine, 100 U/mL penicillin and 100 µg/ml streptomycin, 0.4 µg/ml hydrocortisone, 10 ng/ml epidermal growth factor (EGF) recombinant human protein, 24 µg/mL adenine, and 0.1 mg/mL primocin. During culture from frozen stock vials, PDMR cells were cultured in the same medium containing 10 µM Y-27632 (see Table 3). The PDCs were cultured in complete DMEM/F12 media without 10 microM Y-27632 dihydrochloride for at least two passages prior to the screen. The pooled donor HUVEC and hMSC were cultured in endothelial cell growth medium 2 (PromoCell, Heidelberg, Germany, cat. C-22011) and mesenchymal stem cell growth medium 2 (PromoCell, cat. C-28009), respectively. For all experiments, HUVEC and hMSC were used at passages </=5.
For the pre-screen, cell seeding densities were determined from a titration spanning the range from 5,000 to 313 cells per well. The mct-spheroids including 60% malignant cells, 25% HUVEC and 15% MSC dispensed as a mixture into U-bottom Ultra-Low Attachment 384-well plates (Corning, NY)
High-throughput Drug Combination Screening.
Prior to their inoculation into 384-well plates, malignant cells, HUVEC, and hMSC were removed from T flasks using TrypLE express (Thermo Fisher Scientific, cat. 12605036) and harvested by centrifugation for 5 min at 233 x g. […]

The term viability, T/C denotes the ratio of treated to control. As a reminder, the IC50 is the concentration that inhibits the measured activity by half.

SMILES strings stand for the structures. “And” between values parts separate entries of the source, which are not always exact repeats. Equal entries are not always repeated.
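Further: spheroids exposed to drugs for 7 days.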

`COc1c(OCCCN2CCOCC2)ccc2c3n(c(=NC(=O)c4cnc(N)nc4)nc12)CCN3`: the viability, T/C reads like this: (compound 0.00316 µM) 95.7% and 91.3%; (compound 0.01 µM) 80.9% and 100%; (compound 0.0316 µM) 81.7% and 72.2%; (compound 0.1 µM) 48.8% and 62.1%; (compound 0.316 µM) 43.9% and 52.3%; (compound 1 µM) 33.8% and 44.4%. The IC50 (curve of compound) is 111 nM and 315 nM.
On to `CC(C)CC(NC(=O)C(Cc1ccccc1)NC(=O)c1cnccn1)B(O)O` (centres undefined), for which the viability, T/C (compound 31.6 pM) is 90.9% and 107%; the viability, T/C (compound 0.0001 µM) is 97.5% and 90.8%; the viability, T/C (compound 0.000316 µM) is 91% and 116%; the viability, T/C (compound 0.001 µM) was 88.1% and 106%; the viability, T/C (compound 0.00316 µM) was 89.5% and 109%; the viability, T/C (compound 0.01 µM) is 73.2% and 71.1%. Also, the IC50 (curve of compound) was > 10 nM.
For `Cn1cnc2c(F)c(Nc3ccc(Br)cc3Cl)c(C(=O)NOCCO)cc21` + CC(C)NCC(C(=O)N1CCN(c2ncnc3c2C(C)CC3O)CC1)c1ccc(Cl)cc1, the IC50 was 77.5 nM (curve of first compound, second compound 0.3 µM); 68.7 nM (curve of first compound, second compound 0.949 µM); 95.4 nM (curve of first compound, second compound 3 µM); 139 nM (curve of first compound, second compound 9.49 µM); 162 nM (curve of first compound, second compound 30 µM). The viability, T/C (second compound 0.3 µM, first compound 0.00949 µM) is 80.3%; the viability, T/C (second compound 0.3 µM, first compound 0.03 µM) came out at 62.7%; the viability, T/C (second compound 0.3 µM, first compound 0.0949 µM) is 49%; the viability, T/C (second compound 0.3 µM, first compound 0.3 µM) worked out at 30.5%; the viability, T/C (second compound 0.3 µM, first compound 0.949 µM) worked out at 17%; the viability, T/C (second compound 0.3 µM, first compound 3 µM) turned out to be 14%. The viability, T/C is 88.5% (second compound 0.949 µM, first compound 0.00949 µM); 64% (second compound 0.949 µM, first compound 0.03 µM); 44.1% (second compound 0.949 µM, first compound 0.0949 µM); 32.8% (second compound 0.949 µM, first compound 0.3 µM); 15.7% (second compound 0.949 µM, first compound 0.949 µM); 16.8% (second compound 0.949 µM, first compound 3 µM). Moreover, the viability, T/C runs as follows: (second compound 3 µM, first compound 0.00949 µM) 73.8%; (second compound 3 µM, first compound 0.03 µM) 66.9%; (second compound 3 µM, first compound 0.0949 µM) 50.1%; (second compound 3 µM, first compound 0.3 µM) 30.7%; (second compound 3 µM, first compound 0.949 µM) 24.6%; (second compound 3 µM, first compound 3 µM) 15.5%. The viability, T/C reads like this: (second compound 9.49 µM, first compound 0.00949 µM) 84.2%; (second compound 9.49 µM, first compound 0.03 µM) 85.3%; (second compound 9.49 µM, first compound 0.0949 µM) 53.8%; (second compound 9.49 µM, first compound 0.3 µM) 36.2%; (second compound 9.49 µM, first compound 0.949 µM) 23.4%; (second compound 9.49 µM, first compound 3 µM) 17%. For the same molecule, the viability, T/C came to 101% (second compound 30 µM, first compound 0.00949 µM); 79% (second compound 30 µM, first compound 0.03 µM); 68.7% (second compound 30 µM, first compound 0.0949 µM); 32.2% (second compound 30 µM, first compound 0.3 µM); 21% (second compound 30 µM, first compound 0.949 µM); 21.4% (second compound 30 µM, first compound 3 µM).
